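Five concentrations, 48 hours, 96-well plates. At the GI50, growth is halved. Definition used: TGI = concentration required for complete inhibition of growth.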
Columns and labels:
Assay in all cases: NCI tumour cell line growth inhibition, 48 h
HT29 colon = system: HT29 colon
HOP-62 NSCLC = system: HOP-62 NSCLC
LOX IMVI melanoma = system: LOX IMVI melanoma
MOLT-4 leukemia = system: MOLT-4 leukemia
SK-OV-3 ovarian = system: SK-OV-3 ovarian
A549 NSCLC = system: A549 NSCLC
OVCAR-3 ovarian = system: OVCAR-3 ovarian
HCC-2998 colon = system: HCC-2998 colon
DU-145 prostate = system: DU-145 prostate
SK-MEL-5 melanoma = system: SK-MEL-5 melanoma
MDA-MB-435 = system: MDA-MB-435
TK-10 renal = system: TK-10 renal
HOP-92 NSCLC = system: HOP-92 NSCLC
MDA-MB-231 breast = system: MDA-MB-231 breast
KM12 colon = system: KM12 colon
SNB-19 CNS = system: SNB-19 CNS
SN12C renal = system: SN12C renal
SNB-75 CNS = system: SNB-75 CNS
SW-620 colon = system: SW-620 colon
HCT-15 colon = system: HCT-15 colon
COLO 205 colon = system: COLO 205 colon
MALME-3M melanoma = system: MALME-3M melanoma
SK-MEL-2 melanoma = system: SK-MEL-2 melanoma
HCT-116 colon = system: HCT-116 colon
K-562 leukemia = system: K-562 leukemia
MCF7 breast = system: MCF7 breast
NCI/ADR-RES ovarian = system: NCI/ADR-RES ovarian
RXF 393 renal = system: RXF 393 renal
UO-31 renal = system: UO-31 renal
BT-549 breast = system: BT-549 breast
SR leukemia = system: SR leukemia
SF-268 CNS = system: SF-268 CNS
EKVX NSCLC = system: EKVX NSCLC
SF-539 CNS = system: SF-539 CNS
OVCAR-8 ovarian = system: OVCAR-8 ovarian
M14 melanoma = system: M14 melanoma
IGROV1 ovarian = system: IGROV1 ovarian
UACC-62 melanoma = system: UACC-62 melanoma
SK-MEL-28 melanoma = system: SK-MEL-28 melanoma
OVCAR-5 ovarian = system: OVCAR-5 ovarian
HL-60(TB) leukemia = system: HL-60(TB) leukemia
PC-3 prostate = system: PC-3 prostate
RPMI-8226 leukemia = system: RPMI-8226 leukemia
ACHN renal = system: ACHN renal
HS 578T breast = system: HS 578T breast
T-47D breast = system: T-47D breast
U251 CNS = system: U251 CNS
SF-295 CNS = system: SF-295 CNS
CCRF-CEM leukemia = system: CCRF-CEM leukemia
NCI-H522 lung = system: NCI-H522 lung
A498 renal = system: A498 renal
NCI-H23 lung = system: NCI-H23 lung
OVCAR-4 ovarian = system: OVCAR-4 ovarian
NCI-H226 lung = system: NCI-H226 lung
NCI-H460 lung = system: NCI-H460 lung
UACC-257 melanoma = system: UACC-257 melanoma
786-0 renal = system: 786-0 renal
CAKI-1 renal = system: CAKI-1 renal

`Cc1oc2c(C(=O)N/N=C\c3ccc(O)cc3O)c[nH]c2c1C` gave a GI50 (HT29 colon) of 2.85 µM, a TGI (HT29 colon) of over 48.2 µM and a GI50 (HOP-62 NSCLC) of 0.754 µM. It also gave a TGI (HOP-62 NSCLC) of 26.3 µM, a GI50 (LOX IMVI melanoma) of 0.409 µM and a TGI (LOX IMVI melanoma) of 10.6 µM. The GI50 (MOLT-4 leukemia) was 0.44 µM, the TGI (MOLT-4 leukemia) was over 100 µM and the GI50 (SK-OV-3 ovarian) was 0.68 µM. The TGI (SK-OV-3 ovarian) was 17.4 µM, the GI50 (A549 NSCLC) was 0.518 µM and the TGI (A549 NSCLC) was 13.2 µM. For the same compound, the GI50 (OVCAR-3 ovarian) was 0.368 µM, the TGI (OVCAR-3 ovarian) was over 39.4 µM and the GI50 (HCC-2998 colon) was 0.876 µM. For the same compound, the TGI (HCC-2998 colon) was over 50.6 µM, the GI50 (DU-145 prostate) was 1.32 µM and the TGI (DU-145 prostate) was over 41.1 µM. The GI50 (SK-MEL-5 melanoma) was 1.02 µM, the TGI (SK-MEL-5 melanoma) was 15.7 µM and the GI50 (MDA-MB-435) was 4.52 µM. For the same compound, the TGI (MDA-MB-435) was over 100 µM, the GI50 (TK-10 renal) was 1.03 µM and the TGI (TK-10 renal) was over 64.8 µM. The GI50 (HOP-92 NSCLC) was 0.541 µM, the TGI (HOP-92 NSCLC) was 9.21 µM and the GI50 (MDA-MB-231 breast) was 8.13 µM. For the same compound, the TGI (MDA-MB-231 breast) was over 45.9 µM, the GI50 (KM12 colon) was 1.1 µM and the TGI (KM12 colon) was over 73.4 µM. It also gave a GI50 (SNB-19 CNS) of 1.32 µM, a TGI (SNB-19 CNS) of over 42 µM and a GI50 (SN12C renal) of 2.54 µM. For the same compound, the TGI (SN12C renal) was over 48.4 µM, the GI50 (SNB-75 CNS) was 3.57 µM and the TGI (SNB-75 CNS) was over 39.6 µM. The GI50 (SW-620 colon) was 0.801 µM, the TGI (SW-620 colon) was over 37 µM and the GI50 (HCT-15 colon) was 0.175 µM. It also gave a TGI (HCT-15 colon) of over 100 µM, a GI50 (COLO 205 colon) of 0.29 µM and a GI50 (MALME-3M melanoma) of 2.23 µM. The TGI (MALME-3M melanoma) was 25.3 µM, the GI50 (SK-MEL-2 melanoma) was 10.4 µM and the TGI (SK-MEL-2 melanoma) was over 100 µM. The GI50 (HCT-116 colon) was 0.424 µM, the TGI (HCT-116 colon) was 32.5 µM and the GI50 (K-562 leukemia) was 1.14 µM. The TGI (K-562 leukemia) was over 100 µM, the GI50 (MCF7 breast) was 0.521 µM and the TGI (MCF7 breast) was over 33.6 µM. The GI50 (NCI/ADR-RES ovarian) was 0.295 µM, the TGI (NCI/ADR-RES ovarian) was 23.3 µM and the GI50 (RXF 393 renal) was 0.58 µM. It also gave a TGI (RXF 393 renal) of 16.7 µM, a GI50 (UO-31 renal) of 0.208 µM and a TGI (UO-31 renal) of 13.9 µM. For the same compound, the GI50 (BT-549 breast) was 2.05 µM, the TGI (BT-549 breast) was over 54.6 µM and the GI50 (SR leukemia) was 4.47 µM. For the same compound, the TGI (SR leukemia) was over 100 µM, the GI50 (SF-268 CNS) was 0.662 µM and the TGI (SF-268 CNS) was over 44.4 µM. For the same compound, the GI50 (EKVX NSCLC) was 0.46 µM, the TGI (EKVX NSCLC) was over 54.2 µM and the GI50 (SF-539 CNS) was 0.84 µM. The TGI (SF-539 CNS) was 12.5 µM, the GI50 (OVCAR-8 ovarian) was 0.664 µM and the TGI (OVCAR-8 ovarian) was 39.7 µM. The GI50 (M14 melanoma) was 0.756 µM, the TGI (M14 melanoma) was 17.3 µM and the GI50 (IGROV1 ovarian) was 0.593 µM. For the same compound, the TGI (IGROV1 ovarian) was 44.5 µM, the GI50 (UACC-62 melanoma) was 0.665 µM and the TGI (UACC-62 melanoma) was 8.32 µM. The GI50 (SK-MEL-28 melanoma) was 2.12 µM, the TGI (SK-MEL-28 melanoma) was over 41.7 µM and the GI50 (OVCAR-5 ovarian) was 3.89 µM. It also gave a TGI (OVCAR-5 ovarian) of over 45.2 µM, a GI50 (HL-60(TB) leukemia) of 0.337 µM and a GI50 (PC-3 prostate) of 0.579 µM. The TGI (PC-3 prostate) was over 45.6 µM, the GI50 (RPMI-8226 leukemia) was 0.445 µM and the TGI (RPMI-8226 leukemia) was 17.4 µM. For the same compound, the GI50 (ACHN renal) was 0.339 µM, the TGI (ACHN renal) was 13.7 µM and the GI50 (HS 578T breast) was 6.71 µM. For the same compound, the TGI (HS 578T breast) was over 60.7 µM, the GI50 (T-47D breast) was 1.79 µM and the TGI (T-47D breast) was over 43.2 µM. It also gave a GI50 (U251 CNS) of 0.57 µM, a TGI (U251 CNS) of 15.4 µM and a GI50 (SF-295 CNS) of 0.435 µM. The TGI (SF-295 CNS) was 29.6 µM, the GI50 (CCRF-CEM leukemia) was 0.19 µM and the TGI (CCRF-CEM leukemia) was over 100 µM. For the same compound, the GI50 (NCI-H522 lung) was 0.704 µM, the TGI (NCI-H522 lung) was 63.9 µM and the GI50 (A498 renal) was 6.62 µM. The TGI (A498 renal) was 39.3 µM, the GI50 (NCI-H23 lung) was 1.49 µM and the TGI (NCI-H23 lung) was 24.3 µM. The GI50 (OVCAR-4 ovarian) was 0.414 µM, the TGI (OVCAR-4 ovarian) was over 47.1 µM and the GI50 (NCI-H226 lung) was 4.14 µM. For the same compound, the TGI (NCI-H226 lung) was 24.3 µM, the GI50 (NCI-H460 lung) was 0.347 µM and the TGI (NCI-H460 lung) was 7.28 µM. For the same compound, the GI50 (UACC-257 melanoma) was 0.644 µM, the TGI (UACC-257 melanoma) was 3.08 µM and the GI50 (786-0 renal) was 0.464 µM. The TGI (786-0 renal) was 7.49 µM, the GI50 (CAKI-1 renal) was 0.739 µM and the TGI (CAKI-1 renal) was 26.7 µM.

Source: PubChem BioAssay (NCI)
